Drawing on patent US7323468B2, “Pyridopyrazines and the use thereof as kinase inhibitors” (AEterna Zentaris GmbH, priority 2003, dated 2008), this text covers IC50 and melting point for seven compounds.

Data set [1] has as its system Raf-Mek-Erk cascade (GST-c-Raf-DD, GST-Mek1, His-Erk2). In words: Raf-Mek-Erk ELISA (cell-free reconstituted cascade, Erk phosphorylation). The format is biochemical, human. The conditions noted are these: inhibition of Erk phosphorylation, 1 mM ATP, 10 concentrations 31.6 pM-100 μM. How it is done: The inhibitory effect on the following human serine/threonine and tyrosine kinases of the compounds of the invention was tested in conventional kinase assays: PKB/Akt1, c-Raf, B-Raf, Mek, PDGFRbeta, Flt-3, c-Kit, c-Ab1, KDR, FGFR1 and IGF1R. Both the full-length kinases and truncated fragments—but at least the cytoplasmic, constitutively active kinase domains—were employed. The kinases were prepared as recombinant fusion proteins with GST (glutathion S-transferase) or HIS Tag in Sf9 cell culture. Depending on the substrate type, the various kinase reactions were carried out in sandwich ELISA formates or by means of a simple substrate adsorption assay on 96-well Flashplates (Perkin Elmer).
The testing on substances on the Raf-Mek-Erk cascade is described in detail below. Selected test results for the Raf and Mek inhibitors are then listed.
Procedure: Raf-Mek-Erk ELISA
Potential inhibitors were firstly investigated at a concentration of 20 μg/ml in initial single-dose determinations on 96-well microtiter plates (MTPs). Substances with >70% inhibition were employed for dose-response studies.
Reconstitution of the Raf-Mek-Erk cascade was quantified with the aid of a cell-free ELISA.
A typical kinase assay was carried out in a final volume of 50 μl with in each case 20-150 ng of Raf, Mek, Erk kinase protein, 1 mM ATP, 10 mM MgCl2, 150 mM NaCl, 25 mM beta-glycerophosphate, 25 mM Hepes pH 7.5. Before the kinase reaction, the test substances were each preincubated singly with each of the three kinase proteins at room temperature for 30 minutes. For the kinase reaction, the kinases preincubated with test substance were combined and incubated at 26° C. for 30 minutes. The reaction was stopped by a final concentration of 2% SDS and 10 minutes at 50° C. in a heating block.
For the immunodetection, the reaction mixtures were transferred to 96-well MTPs coated with anti-Erk Ab(K-23, Santa Cruz Biotechnology, incubated at room temperature for 60 minutes and washed 3× with TBST. Anti-phospho-Erk Ab (#9106, New England Biolabs) 1:500 in 50 μl of TBST/1% BSA, was added and incubated at 4° C. overnight. After the MTPs had been washed 3× with TBST, secondary anti-mouse IgG^POD conjugate (#NA931, Pharmacia) 1:2500 was added, incubated at room temperature for 1 h and again washed 3× with TBST. For colorimetric detection of the kinase reaction, 50 μl of OPD (o-phenyldiamine dihydrochloride) chromogen buffer were pipetted into each of the wells and incubated at 37° C. for 30 minutes. The colour reaction was then determined in an ELISA reader at 492 nm.
The experimental determination of dose-response plots took place using the same experimental design with 10 semilogarithmically graded concentrations from 31.6 pM-100 μM. The IC50 values were calculated in GraphPadPrism.
Background: In an ELISA, binding on a coated surface is turned into a signal by an enzyme label.

As to `Cc1ccc(NC(=O)Nc2ccc3ncc(-c4ccccc4)nc3n2)cc1` [Example 15, 1-(3-Phenylpyrido[2,3-b]pyrazin-6-yl)-3-p-tolylurea], the IC50 (commonly the concentration that inhibits the measured activity by half) in data set [1] is over 100 µM.
Same read-out and setting: with `CC(C)(C)NC(=S)Nc1ccc2ncc(-c3ccccc3)nc2n1` [Example 10, 1-tert-Butyl-3-(3-phenylpyrido[2,3-b]pyrazin-6-yl)thiourea] the figure was over 100 µM; with `COc1ccc(-c2cnc3ccc(NC(=S)Nc4ccc([N+](=O)[O-])cc4)nc3n2)cc1` [Example 9, 1-[3-(4-Methoxyphenyl)pyrido[2,3-b]pyrazin-6-yl]-3-(4-nitrophenyl)thiourea], over 100 µM.
Same read-out and setting: with `O=C(Nc1ccc(Cl)c(C(F)(F)F)c1)Nc1ccc2ncc(-c3ccccc3)nc2n1` [Example 16, 1-(4-Chloro-3-trifluoromethylphenyl)-3-(3-phenylpyrido[2,3-b]pyrazin-6-yl)urea] the figure was over 100 µM.
On the same count and under the same terms, with `O=[N+]([O-])c1ccc(NC(=S)Nc2ccc3ncc(-c4ccc5ccccc5c4)nc3n2)cc1` [Example 8, 1-(3-Naphthalen-2-ylpyrido[2,3-b]pyrazin-6-yl)-3-(4-nitrophenyl)thiourea] the figure was over 100 µM; with `S=C(NCc1ccccc1)Nc1ccc2ncc(-c3ccccc3)nc2n1` [Example 13, 1-Benzyl-3-(3-phenylpyrido[2,3-b]pyrazin-6-yl)thiourea], over 100 µM.
Regarding `C=C(C)CNC(=S)Nc1ccc2ncc(-c3ccc4ccccc4c3)nc2n1` [Example 6, 1-(2-Methylallyl)-3-(3-naphthalen-2-ylpyrido[2,3-b]pyrazin-6-yl)thiourea], the melting point – broadly, the temperature of the solid-liquid transition – was 239 to 240 °C (dec.).
